# Source: patent publication US20240101570A1 (AMGEN INC., priority 2020, published 2024)
# Experiments:
# HCT116 WT cells = assay: HCT116 WT cell proliferation / viability (CellTiter-Glo, 6 days); assay type: cell-based; conditions: Homo sapiens, HCT-116, 144 h, HCT116 WT cells, 6 days, CellTiter-Glo; read-out: HCT-116 WT IC50
# Experimental: (§1) HCT116 MTAP null and WT cells were seeded in 96-well tissue culture plates in RPMI 1640 media+10% fetal bovine serum. Plates were incubated overnight at 37° C. and 5% CO2. Cells were then treated with an 8- or 9-point serial dilution of compound, using a top concentration of 1, or 10 μM, 1:3 serial dilution steps and, a DMSO-only control. Cells were incubated in the presence of drug for 6 days. Effects on cell viability were measured with the CellTiter-Glo® Luminescent Cell Viability Assay (Promega) per manufacturer's recommendation. Assay plates were read on an EnVision™ Multilabel Reader using the Ultra-Sensitive luminescence module. IC50 values were calculated with GraphPad Prism v 5.01 using symmetrical sigmoidal dose-response least squares fit with Hill slope fixed to −1 and top constrain to 100% or GeneData Screener using a 4-parameter logistic model to fit dose response curves.
# (§2) Alternatively, compounds could be assayed with a 384 well plate format:
# (§3) Compounds were pre-spotted into 384 well plates with a 22-point serial dilution of compound, using a top concentration of 10 or 50 μM, 1:2 serial dilution steps and, a DMSO-only control. HCT116 MTAP null and WT cells were then seeded as above and after 6 days effects on cell viability were measured with the CellTiter-Glo® Luminescent Cell Viability Assay (Promega). Assay plates were read as above and IC50 values were calculated with GeneData Screener using a 4-parameter logistic model to fit dose response curves. The reported IC50 represents the value where the curve transits 50% of control.
# HCT116 MTAP null cells = assay: HCT116 MTAP null cell proliferation / viability (CellTiter-Glo, 6 days); assay type: cell-based; conditions: HCT116-MTAP null, 144 h, HCT116 MTAP null cells, 6 days, CellTiter-Glo; read-out: HCT-116 MTAP null IC50
# Experimental: as §1, §2, §3
SMILES,IC50 (HCT116 WT cells) [nM],IC50 (HCT116 MTAP null cells) [nM]
"C[C@@H]1OCc2c1c(N)nc1cnc(C(=O)N(Cc3ccc(C4CC4)cn3)C3CC3)cc21 [Example 417, (3S)-4-amino-N-cyclopropyl-N-((5-cyclopropyl-2-pyridinyl)methyl)-3-methyl-1,3-dihydrofuro[3,4-c][1,7]naphthyridine-8-carboxamide]",17600,5610
"CCN(Cc1ccc(C(F)(F)F)cn1)C(=O)c1cc2c3c(c(N)nc2cn1)COC3 [Example 361, 4-amino-N-ethyl-N-((5-(trifluoromethyl)-2-pyridinyl)methyl)-1,3-dihydrofuro[3,4-c][1,7]naphthyridine-8-carboxamide]",7750,173
"C[C@H](c1ccc(C(F)(F)F)cc1)N(C)C(=O)c1cc2c3c(c(N)nc2cc1F)[C@@H](C)OC3 (single isomer, unassigned) [Example 860]",849,17
"CC(C)CN(Cc1ccc(Br)nn1)C(=O)c1ccc2nc(N)c3c(c2c1)COC3 [Example 665, 4-amino-N-((6-bromo-3-pyridazinyl)methyl)-N-(2-methylpropyl)-1,3-dihydrofuro[3,4-c]quinoline-8-carboxamide]",1250,37
"Cn1cc(N(Cc2ccc(C(F)(F)F)nn2)C(=O)c2cc3c4c(c(N)nc3cn2)COC4)cn1 [Example 711, 4-amino-N-(1-methyl-1H-pyrazol-4-yl)-N-((6-(trifluoromethyl)-3-pyridazinyl)methyl)-1,3-dihydrofuro[3,4-c][1,7]naphthyridine-8-carboxamide]",4780,148
"CCN(C(=O)c1ccc2nc(N)c3c(c2c1)CO[C@@H]3C)[C@@H](C)c1ccc(C#N)cn1 (single isomer, unassigned) [Example 843]",> 50000,3360
"COCC(C1CC1)N(Cc1ccc(Br)nn1)C(=O)c1ccc2nc(N)c3sccc3c2c1 (racemic) [Example 639, 4-amino-N-((6-bromo-3-pyridazinyl)methyl)-N-((1R)-1-cyclopropyl-2-methoxyethyl)thieno[2,3-c]quinoline-8-carboxamide and 4-amino-N-((6-bromo-3-pyridazinyl)methyl)-N-((1S)-1-cyclopropyl-2-methoxyethyl)thieno[2,3-c]quinoline-8-carboxamide]",3150,238
"C[C@H]1OCc2c1c(N)nc1ccc(C(=O)N(C)Cc3ccc(C4CC4)cn3)cc21 [Example 356, (3R)-4-amino-N-((5-cyclopropyl-2-pyridinyl)methyl)-N,3-dimethyl-1,3-dihydrofuro[3,4-c]quinoline-8-carboxamide]",5360,92
"C[C@H](c1cnc(C(F)(F)F)cn1)N(C)C(=O)c1cc2c(cc1F)nc(N)c1cnn(C)c12 [Example 780, 4-amino-7-fluoro-N,1-dimethyl-N-((1R)-1-(5-(trifluoromethyl)-2-pyrazinyl)ethyl)-1H-pyrazolo[4,3-c]quinoline-8-carboxamide]",1180,22
"CC(C)CN(Cc1ccc(C(F)(F)F)cn1)C(=O)c1cnc2nc(N)c3c(c2c1)COC3 [Example 612, 4-amino-N-(2-methylpropyl)-N-((5-(trifluoromethyl)-2-pyridinyl)methyl)-1,3-dihydrofuro[3,4-c][1,8]naphthyridine-8-carboxamide]",3060,176
"CN(Cc1ccc(C#N)cn1)C(=O)c1cc2c3c(c(N)nc2cn1)COC3 [Example 367, 4-amino-N-((5-cyano-2-pyridinyl)methyl)-N-methyl-1,3-dihydrofuro[3,4-c][1,7]naphthyridine-8-carboxamide]",> 50000,2280
"Nc1nc2cc(Cl)c(C(=O)N(Cc3ccc(C(F)(F)F)cn3)C34CC(C3)C4)cc2c2c1COC2 [Example 395, 4-amino-N-(bicyclo[1.1.1]pentan-1-yl)-7-chloro-N-((5-(trifluoromethyl)-2-pyridinyl)methyl)-1,3-dihydrofuro[3,4-c]quinoline-8-carboxamide]",535,31
"CC(C)CN(Cc1ccc(C(F)(F)F)cn1)C(=O)c1ccc2nc(N)c3ccncc3c2c1 [Example 632, 5-amino-N-(2-methylpropyl)-N-((5-(trifluoromethyl)-2-pyridinyl)methyl)benzo[c][2,6]naphthyridine-9-carboxamide]",231,11
"Cn1ncc2c(N)nc3cc(F)c(C(=O)N(Cc4cocn4)C4CCC4)cc3c21 [Example 801, 4-amino-N-cyclobutyl-7-fluoro-1-methyl-N-(1,3-oxazol-4-ylmethyl)-1H-pyrazolo[4,3-c]quinoline-8-carboxamide]",13600,153
"Nc1nc2cnc(C(=O)N(Cc3ccc(Br)nn3)CC3CC3)cc2c2c1COC2 [Example 671, 4-amino-N-((6-bromo-3-pyridazinyl)methyl)-N-(cyclopropylmethyl)-1,3-dihydrofuro[3,4-c][1,7]naphthyridine-8-carboxamide]",3970,80
"CCN(Cc1ccc(Cl)cn1)C(=O)c1ccc2nc(N)c3c(c2c1)COC3 [Example 701, 4-amino-N-((5-chloro-2-pyridinyl)methyl)-N-ethyl-1,3-dihydrofuro[3,4-c]quinoline-8-carboxamide]",7250,193
"CN(Cc1ccc(C(F)(F)F)cn1)C(=O)c1cc2c(cc1Cl)nc(N)c1cnn(C)c12 [Example 791, 4-amino-7-chloro-N,1-dimethyl-N-((5-(trifluoromethyl)-2-pyridinyl)methyl)-1H-pyrazolo[4,3-c]quinoline-8-carboxamide]",341,11
"Cc1cc2nc(N)c3cnn(C)c3c2cc1C(=O)N(C)[C@@H](C)c1ccc(F)cn1 (single isomer, unassigned) [Example 591]",32100,563
"C[C@@H](c1ncc(C(F)(F)F)cc1F)N(C)C(=O)c1cc2c(cc1F)nc(N)c1cnn(C)c12 (single isomer, unassigned) [Example 864]",22700,618
"C[C@H](c1ncccn1)N(Cc1ccc(Cl)cn1)C(=O)c1ccc2nc(N)c3c(c2c1)CCC3 [Example 622, 4-amino-N-((5-chloro-2-pyridinyl)methyl)-N-((1R)-1-(2-pyrimidinyl)ethyl)-2,3-dihydro-1H-cyclopenta[c]quinoline-8-carboxamide]",156,11
"CC(C)N(Cc1ccc(OC(F)(F)F)cn1)C(=O)c1ccc2nc(N)c3c(c2c1)CO[C@@H]3C [Example 465, (3R)-4-amino-3-methyl-N-(2-propanyl)-N-((5-(trifluoromethoxy)-2-pyridinyl)methyl)-1,3-dihydrofuro[3,4-c]quinoline-8-carboxamide]",1230,31
"Nc1nc2cc(F)c(C(=O)N(Cc3ccc(C(F)(F)F)nn3)C3CCC3)cc2c2c1COC2 [Example 501, 4-amino-N-cyclobutyl-7-fluoro-N-((6-(trifluoromethyl)-3-pyridazinyl)methyl)-1,3-dihydrofuro[3,4-c]quinoline-8-carboxamide]",1200,46
"CC(C)N(Cc1ccc(C(F)(F)F)cn1)C(=O)c1cc2c3c(c(N)nc2cc1F)COC3 [Example 345, 4-amino-7-fluoro-N-(2-propanyl)-N-((5-(trifluoromethyl)-2-pyridinyl)methyl)-1,3-dihydrofuro[3,4-c]quinoline-8-carboxamide]",210,11
"CC(C)N(Cc1ccc(C#N)cn1)C(=O)c1cc2c3c(c(N)nc2cc1F)COC3 [Example 477, 4-amino-N-((5-cyano-2-pyridinyl)methyl)-7-fluoro-N-(2-propanyl)-1,3-dihydrofuro[3,4-c]quinoline-8-carboxamide]",19400,655
"CN(Cc1ccc(S(F)(F)(F)(F)F)cc1)C(=O)c1cc2c3c(c(N)nc2cc1F)COC3 [Example 512, 4-amino-7-fluoro-N-methyl-N-(4-(pentafluoro-lambda~6~- sulfanyl)benzyl)-1,3-dihydrofuro[3,4-c]quinoline-8-carboxamide]",1380,38
"COC[C@@H](C)N(Cc1ccc(Br)nn1)C(=O)c1cc2c3c(c(N)nc2cn1)COC3 [Example 680, 4-amino-N-((6-bromo-3-pyridazinyl)methyl)-N-((2R)-1-methoxy-2-propanyl)-1,3-dihydrofuro[3,4-c][1,7]naphthyridine-8-carboxamide]",2840,91
"C[C@H](c1ccc(C(F)(F)F)nn1)N(C(=O)c1cc2c3c(c(N)nc2cc1Cl)COC3)C1CCC1 [Example 744, 4-amino-7-chloro-N-cyclobutyl-N-((1R)-1-(6-(trifluoromethyl)-3-pyridazinyl)ethyl)-1,3-dihydrofuro[3,4-c]quinoline-8-carboxamide]",967,38
